Here are results for 14 molecules from patent US20150152083A1, “Compounds and Compositions for Modulating EGFR Activity” (IRM LLC, A Delaware Limited Liability Company, priority 2012, published 2015).

Assay [1] concerns the target T1, EGFR(L858R/T790M) (Homo sapiens, UniProt P00533, L858R/T790M). The experiment in a line: EGFR target modulation in engineered NIH3T3 cell lines (phospho-EGFR AlphaLISA). The format is cell-based. Set-up: host or cells: NIH3T3. The settings on record: NIH3T3 cells expressing human EGFR L858R/T790M; 3 hours compound. As to the method:
(§1) EGFR Target Modulation in Engineered NIH3T3 Cell Lines
(§2) NIH3T3 cell lines expressing human EGFR (WT, L858R, and L858RT790M) (obtained from Matthew Meyerson's Lab at DFCI) were maintained in 10% FBS/DMEM supplemented with 100 μg/ml Penicillin/Streptomycin (Hyclone #SV30010) and 2 μg/ml Puromycin. The cells were harvested with 0.05% Trypsin/EDTA (Hyclone #SH30236.01), re-suspended in 5% FBS/DMEM Pen/Strep without Puromycin and plated at 9,000 cells per well in 50 μl of media in a 384-well black plate with clear bottoms (Greiner #789068G). The cells were allowed to incubate overnight in a 37° C., 5% CO2 humidified tissue culture incubator. A 12-point test compound curve was prepared by serial diluting a 10 μM stock 1:3 in DMSO in a 384-well compound plate (Greiner #789201L). The serial diluted compounds were transferred to the plate containing cells by using a 50 nl Pin Head device (Perkin Elmer) and the cells were placed back in the incubator for 3 hours. Only the EGFR WT-expressing cells were induced with 50 ng/ml EGF (Preprotech #AF-100-15) for 5 minutes before lysis. The media was removed and cells were lysed in 25 μl of Lysis buffer containing protease and phosphatase inhibitors (1% Triton X-100, 20 mM Tris, pH 7.5, 1 mM EDTA, 1 mM EGTA, 150 mM NaCl, 1× complete cocktail inhibitor (Roche #11 697 498 001), 1× Phosphatase Inhibitor Cocktail Set II and Set III (Sigma #P5726 and #P0044)). The plates were shaken at 4° C. for 5 minutes with foil top at maximum speed. An aliquot of 5 μl from each well was transferred to ProxiPlate™ 384-well Plus plates (PE #6008289). The plates were sealed with a foil top and frozen at −80° C. and thawed when needed.
(§3) The frozen aliquots were thawed and briefly centrifuged. All antibodies and beads were diluted in 1× AlphaLISA HiBlock Buffer (PE #AL004C). Biotinylated anti-phospho-EGFR (Y1068) (Cell Signaling #4031) was incubated with the lysate for 1 hour at room temperature at 1 nM final concentration. Goat anti-total EGFR (R&D Systems #AF231) was added and allowed to equilibrate for 1 hour at room temperature at 1 nM final concentration. Then, 10 μl of mixed beads (AlphaScreen Streptavidin Donor Beads (PE #6760002S) and AlphaLISA anti-goat IgG Acceptor Beads (PE #AL107C)) was equilibrated for 1.5 hours before reading on EnVision plate reader using the built-in settings for AlphaScreen.
(§4) Cells untreated (L858R and L858RT790M) or EGF-induced (WT) were set to 100% maximum response. For a negative control, 10 μM HKI-272 was used to normalize data to 0% of maximum response. With these parameters, the IC50's for each compound in each cell line was calculated using non-linear curve fitting analysis.
Target sequence in this assay (P00533 25-1210 T790M/L858R): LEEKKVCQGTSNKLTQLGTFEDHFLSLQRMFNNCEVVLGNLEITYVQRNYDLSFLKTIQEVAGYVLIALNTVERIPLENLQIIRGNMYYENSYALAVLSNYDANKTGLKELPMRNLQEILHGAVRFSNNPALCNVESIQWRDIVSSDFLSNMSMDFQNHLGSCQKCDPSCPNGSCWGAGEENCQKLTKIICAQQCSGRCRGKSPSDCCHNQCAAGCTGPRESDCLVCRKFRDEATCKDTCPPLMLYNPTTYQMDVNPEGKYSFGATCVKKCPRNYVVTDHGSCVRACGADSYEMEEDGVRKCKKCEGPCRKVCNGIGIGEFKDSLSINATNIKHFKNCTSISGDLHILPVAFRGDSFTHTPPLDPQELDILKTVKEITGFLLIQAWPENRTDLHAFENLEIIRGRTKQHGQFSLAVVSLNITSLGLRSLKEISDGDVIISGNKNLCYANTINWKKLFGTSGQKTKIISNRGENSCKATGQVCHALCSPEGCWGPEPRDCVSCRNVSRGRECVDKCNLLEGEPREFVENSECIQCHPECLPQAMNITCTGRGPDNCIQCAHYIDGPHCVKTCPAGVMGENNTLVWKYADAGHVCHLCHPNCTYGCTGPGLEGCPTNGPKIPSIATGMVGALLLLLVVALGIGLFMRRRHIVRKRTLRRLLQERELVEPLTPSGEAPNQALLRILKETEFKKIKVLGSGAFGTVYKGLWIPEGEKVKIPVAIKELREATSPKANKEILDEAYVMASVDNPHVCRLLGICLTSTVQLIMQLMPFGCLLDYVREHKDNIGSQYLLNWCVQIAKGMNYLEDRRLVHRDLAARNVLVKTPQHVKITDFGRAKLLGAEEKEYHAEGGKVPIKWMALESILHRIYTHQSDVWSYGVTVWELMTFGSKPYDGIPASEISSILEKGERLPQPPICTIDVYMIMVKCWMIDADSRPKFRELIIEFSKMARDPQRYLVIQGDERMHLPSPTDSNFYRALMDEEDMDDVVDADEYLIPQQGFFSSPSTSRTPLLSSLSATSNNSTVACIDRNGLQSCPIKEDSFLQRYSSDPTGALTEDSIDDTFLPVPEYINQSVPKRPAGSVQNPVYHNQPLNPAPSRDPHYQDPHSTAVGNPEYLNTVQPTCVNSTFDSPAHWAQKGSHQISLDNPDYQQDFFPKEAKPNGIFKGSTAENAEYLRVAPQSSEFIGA

The target in assay [2] is T2, EGFR (L858R) (Homo sapiens, UniProt P00533, L858R).
T2 construct: host or cells: NIH3T3
Described as above. The format is cell-based. To be noted: NIH3T3 cells expressing human EGFR L858R; 3 hours compound. As to the method: as §1, §2, §3, §4

The target in assay [3] is T3, EGFR (WT) (Homo sapiens, UniProt P00533).
T3 construct: host or cells: NIH3T3
Described as above. The format is cell-based. To be noted: NIH3T3 cells expressing human EGFR WT; 3 hours compound; induced with 50 ng/ml EGF. The protocol: as §1, §2, §3, §4

Assay [4] has as its target T1, EGFR(L858R/T790M). The experiment in a line: EGFR biochemical assay (HTRF), IC50 determination. Set-up: purchased from Carna (GST-a.a. 669-1210); purchased Carna. To be noted: 10 μM ATP. As to the method:
All EGFR biochemical assays were carried out by HTRF method. The EGFR(L858RT790M) enzyme were purchased from Carna (GST-a.a. 669-1210). The substrate peptide Biotin-TK-peptide was purchased from Cis-Bio. The reaction mixtures contained 1 μM peptide substrate, 10 μM ATP, and 0.036 nM EGFR(L858RT790M) in the reaction buffer (50 mM HEPES pH 7.1, 10 mM MgCl2, 0.01% BSA, 1 mM TCEP and 0.1 mM Na3VO4) at a final volume of 10 μL. All reactions were carried out at room temperature in white ProxiPlate™ 384-well Plus plates (PerkinElmer) and were quenched with 5 μL of 0.2 M EDTA at 60 min Five μL of the detection reagents (2.5 ng PT66K and 0.05 μg SAXL per well) were added, the plates were incubated at room temperature for 1 h and then read in EnVision reader. […] For no-preincubation condition, the compounds were added to the assay solution containing ATP and peptide, and the reaction was initiated by addition of enzyme. For pre-incubation conditions, the compounds were added to the assay solution containing enzyme and peptide, and pre-incubated at room temperature for desired period of time, then the reaction was initiated by addition of ATP.
Target sequence in this assay (P00533 669-1210 T790M/L858R): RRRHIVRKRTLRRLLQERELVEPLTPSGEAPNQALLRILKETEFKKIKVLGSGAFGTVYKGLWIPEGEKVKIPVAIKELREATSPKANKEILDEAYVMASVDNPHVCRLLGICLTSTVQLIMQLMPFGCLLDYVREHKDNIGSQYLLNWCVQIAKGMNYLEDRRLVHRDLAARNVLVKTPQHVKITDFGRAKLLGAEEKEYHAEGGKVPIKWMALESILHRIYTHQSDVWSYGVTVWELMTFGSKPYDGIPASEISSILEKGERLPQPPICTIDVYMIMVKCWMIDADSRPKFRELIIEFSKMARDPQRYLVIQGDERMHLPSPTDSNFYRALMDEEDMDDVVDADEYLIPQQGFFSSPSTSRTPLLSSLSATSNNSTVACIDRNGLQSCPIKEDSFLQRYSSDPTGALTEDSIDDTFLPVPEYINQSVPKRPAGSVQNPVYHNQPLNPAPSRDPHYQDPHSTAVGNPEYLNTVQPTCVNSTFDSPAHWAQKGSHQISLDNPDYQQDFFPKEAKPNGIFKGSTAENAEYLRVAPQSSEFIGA

[5] abbreviates: EGFR (L858R/T790M) IC50 (μM) 90 min pre-incubation, 90 min pre-incubation.
Setting [6] is: no pre-incubation, read-out: EGFR (L858R/T790M) IC50 (μM) No pre-incubation.

T2 sequence (P00533 25-1210 L858R): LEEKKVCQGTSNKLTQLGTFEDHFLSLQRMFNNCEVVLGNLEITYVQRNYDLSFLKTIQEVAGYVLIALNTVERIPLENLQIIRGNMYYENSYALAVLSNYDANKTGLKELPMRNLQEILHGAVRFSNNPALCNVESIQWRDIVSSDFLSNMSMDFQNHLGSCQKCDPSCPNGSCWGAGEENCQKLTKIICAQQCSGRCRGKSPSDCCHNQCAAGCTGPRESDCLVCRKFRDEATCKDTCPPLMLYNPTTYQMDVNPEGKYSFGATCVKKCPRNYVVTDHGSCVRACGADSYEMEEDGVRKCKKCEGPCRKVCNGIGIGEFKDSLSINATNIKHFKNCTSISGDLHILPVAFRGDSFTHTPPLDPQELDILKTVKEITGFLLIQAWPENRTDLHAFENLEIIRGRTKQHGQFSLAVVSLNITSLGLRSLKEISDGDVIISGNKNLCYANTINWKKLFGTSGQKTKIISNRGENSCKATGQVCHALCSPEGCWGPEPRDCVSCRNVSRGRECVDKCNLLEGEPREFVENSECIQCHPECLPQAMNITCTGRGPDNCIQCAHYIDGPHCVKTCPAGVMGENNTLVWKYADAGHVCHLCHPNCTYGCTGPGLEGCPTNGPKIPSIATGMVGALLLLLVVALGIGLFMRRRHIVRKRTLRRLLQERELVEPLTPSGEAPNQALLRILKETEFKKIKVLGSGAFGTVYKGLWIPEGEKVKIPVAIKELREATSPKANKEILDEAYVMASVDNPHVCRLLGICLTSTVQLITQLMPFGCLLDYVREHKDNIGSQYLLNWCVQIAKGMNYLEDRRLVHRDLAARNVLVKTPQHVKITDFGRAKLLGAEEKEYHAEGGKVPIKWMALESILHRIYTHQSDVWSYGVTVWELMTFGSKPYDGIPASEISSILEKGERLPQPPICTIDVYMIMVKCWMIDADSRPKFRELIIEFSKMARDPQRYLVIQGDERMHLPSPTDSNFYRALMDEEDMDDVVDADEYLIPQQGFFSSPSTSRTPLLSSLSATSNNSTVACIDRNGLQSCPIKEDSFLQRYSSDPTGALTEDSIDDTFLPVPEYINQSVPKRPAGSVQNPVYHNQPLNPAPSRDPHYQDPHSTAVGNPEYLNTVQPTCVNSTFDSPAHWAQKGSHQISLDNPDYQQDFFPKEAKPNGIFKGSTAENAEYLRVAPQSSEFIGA
T3 sequence (P00533 25-1210): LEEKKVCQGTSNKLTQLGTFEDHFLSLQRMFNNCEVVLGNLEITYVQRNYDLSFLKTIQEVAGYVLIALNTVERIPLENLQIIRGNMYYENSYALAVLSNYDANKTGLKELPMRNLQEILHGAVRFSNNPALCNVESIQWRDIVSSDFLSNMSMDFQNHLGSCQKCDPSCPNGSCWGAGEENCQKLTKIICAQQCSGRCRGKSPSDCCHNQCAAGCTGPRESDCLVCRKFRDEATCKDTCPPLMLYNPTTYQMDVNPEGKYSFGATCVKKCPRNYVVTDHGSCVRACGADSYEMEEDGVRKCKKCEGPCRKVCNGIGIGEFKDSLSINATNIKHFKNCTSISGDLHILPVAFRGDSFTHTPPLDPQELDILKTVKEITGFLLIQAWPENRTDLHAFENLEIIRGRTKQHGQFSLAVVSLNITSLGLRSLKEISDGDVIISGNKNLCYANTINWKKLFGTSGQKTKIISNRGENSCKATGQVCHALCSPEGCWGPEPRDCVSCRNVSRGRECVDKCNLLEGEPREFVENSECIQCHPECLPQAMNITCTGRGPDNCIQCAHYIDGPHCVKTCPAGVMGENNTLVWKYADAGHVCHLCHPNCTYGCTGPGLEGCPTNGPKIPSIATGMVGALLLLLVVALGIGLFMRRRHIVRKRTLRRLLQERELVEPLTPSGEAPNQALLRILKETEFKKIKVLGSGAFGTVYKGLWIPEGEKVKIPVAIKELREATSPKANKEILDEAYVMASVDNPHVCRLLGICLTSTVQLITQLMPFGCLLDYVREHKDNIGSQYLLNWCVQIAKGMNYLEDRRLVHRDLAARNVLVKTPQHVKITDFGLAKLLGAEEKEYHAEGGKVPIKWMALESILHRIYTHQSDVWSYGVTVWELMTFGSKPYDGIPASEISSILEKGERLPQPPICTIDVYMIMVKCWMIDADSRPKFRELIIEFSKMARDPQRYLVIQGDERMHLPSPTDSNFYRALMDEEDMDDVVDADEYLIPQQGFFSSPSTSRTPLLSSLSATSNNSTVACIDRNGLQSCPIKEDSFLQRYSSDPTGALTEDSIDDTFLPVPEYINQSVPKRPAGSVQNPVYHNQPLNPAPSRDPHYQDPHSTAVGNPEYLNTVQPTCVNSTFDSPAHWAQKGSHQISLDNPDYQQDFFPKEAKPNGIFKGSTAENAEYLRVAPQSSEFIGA

For the molecule `C=CC(=O)Nc1cccc(-n2c(NC(=O)c3ccc(C)cc3)nc3cc(C)ccc32)c1` [Example 2-3, 4-methyl-N-{5-methyl-1-[3-(prop-2-enamido)phenyl]-1H-1,3-benzodiazol-2-yl}benzamide], the IC50 in assay [1] was 0.98 µM; in assay [2] it was 0.77 µM; in assay [3], over 10 µM; in assay [4] (setting [5]), 0.034 µM; in assay [4] (setting [6]) it was 0.39 µM.

Regarding `C=CC(=O)Nc1cccc(-n2c(NC(=O)c3cccc(C)c3)nc3cc(C)ccc32)c1` [Example 2-5, 3-methyl-N-{5-methyl-1-[3-(prop-2-enamido)phenyl]-1H-1,3-benzodiazol-2-yl}benzamide], the IC50 was 0.17 µM in assay [1]; 1.3 µM in assay [2]; over 10 µM in assay [3]; 0.012 µM in assay [4] (setting [5]); 0.14 µM in assay [4] (setting [6]).

Take `C=CC(=O)Nc1cccc(-n2c(NC(=O)c3ccc4ccccc4c3)nc3cc(C)ccc32)c1` [Example 2-8, N-{5-methyl-1-[3-(prop-2-enamido)phenyl]-1H-1,3-benzodiazol-2-yl}naphthalene-2-carboxamide]: the IC50 is 0.38 µM in assay [1]; 0.64 µM in assay [2]; over 10 µM in assay [3]; 0.013 µM in assay [4] (setting [5]); 0.18 µM in assay [4] (setting [6]).

On to `C=CC(=O)Nc1cccc(-n2c(NC(=O)c3cccc(C(F)(F)F)c3)nc3cc(CN4CCCC4)ccc32)c1` [Example 5-2, N-[1-[3-(prop-2-enamido)phenyl]-5-(pyrrolidin-1-ylmethyl)-1H-1,3-benzodiazol-2-yl]-3-(trifluoromethyl)benzamide], for which the IC50 is 0.013 µM in assay [1]; 0.18 µM in assay [2]; over 10 µM in assay [3]; 0.007 µM in assay [4] (setting [5]); 0.039 µM in assay [4] (setting [6]).

For the molecule `C=CC(=O)Nc1cccc(-n2c(NC(=O)c3ccc(F)c(F)c3)nc3cc(C)ccc32)c1` [Example 2-2, 3,4-difluoro-N-{5-methyl-1-[3-(prop-2-enamido)phenyl]-1H-1,3-benzodiazol-2-yl}benzamide], the IC50 in assay [1] was 0.08 µM; in assay [2], 0.2 µM; in assay [3], over 10 µM; in assay [4] (setting [5]), 0.002 µM; in assay [4] (setting [6]), 0.054 µM.

On to `C=CC(=O)Nc1cccc(-n2c(NC(=O)c3cccc(Oc4ccccc4)c3)nc3cc(C)ccc32)c1` [Example 2-6, N-{5-methyl-1-[3-(prop-2-enamido)phenyl]-1H-1,3-benzodiazol-2-yl}-3-phenoxybenzamide], for which the IC50 was 0.062 µM in assay [1]; 0.27 µM in assay [2]; over 10 µM in assay [3]; under 0.001 µM in assay [4] (setting [5]); 0.021 µM in assay [4] (setting [6]).

As to `C=CC(=O)N[C@@H]1CCC[C@@H](n2c(NC(=O)c3cccc(C(F)(F)F)c3)nc3cc(C)ccc32)C1` (racemic) [Example 8-2, N-{5-methyl-1-[(1S,3S)-3-(prop-2-enamido)cyclohexyl]-1H-1,3-benzodiazol-2-yl}-3-(trifluoromethyl)benzamide], the IC50 in assay [1] is 0.41 µM; in assay [2], over 3.7 µM; in assay [3] it was over 10 µM; in assay [4] (setting [5]), 0.051 µM; in assay [4] (setting [6]) it was 0.27 µM.

Turning to `C=CC(=O)Nc1cccc(-n2c(NC(=O)c3ccc(Cl)c(Cl)c3)nc3cc(C)ccc32)c1` [Example 2-4, 3,4-dichloro-N-{5-methyl-1-[3-(prop-2-enamido)phenyl]-1H-1,3-benzodiazol-2-yl}benzamide], the IC50 was 0.22 µM in assay [1]; 0.33 µM in assay [2]; over 10 µM in assay [3]; 0.023 µM in assay [4] (setting [5]); 0.27 µM in assay [4] (setting [6]).

`C=CC(=O)Nc1cccc(-n2c(NC(=O)c3cccc(C(F)(F)F)c3)nc3cc(C)ccc32)c1` [Example 2-9, N-{5-methyl-1-[3-(prop-2-enamido)phenyl]-1H-1,3-benzodiazol-2-yl}-3-(trifluoromethyl)benzamide]: the IC50 is 0.052 µM in assay [1]; 0.55 µM in assay [2]; over 10 µM in assay [3]; 0.006 µM in assay [4] (setting [5]); 0.049 µM in assay [4] (setting [6]).

For the molecule `C=CC(=O)Nc1cccc(-n2c(NC(=O)c3cccc(F)c3)nc3cc(C)ccc32)c1` [Example 2-1, 3-fluoro-N-{5-methyl-1-[3-(prop-2-enamido)phenyl]-1H-1,3-benzodiazol-2-yl}benzamide], the IC50 in assay [1] was 0.028 µM; in assay [2], 0.33 µM; in assay [3] it was over 10 µM; in assay [4] (setting [5]), 0.003 µM; in assay [4] (setting [6]), 0.023 µM.

As to `C=CC(=O)Nc1cccc(-n2c(NC(=O)c3cccc(C(F)(F)F)c3)nc3cc(COCC)ccc32)c1` [Example 4, N-(1-(3-acrylamidophenyl)-5-(ethoxymethyl)-1H-benzo[d]imidazol-2-yl)-3-(trifluoromethyl)benzamide], the IC50 is 0.1 µM in assay [1]; 1.1 µM in assay [2]; over 10 µM in assay [3]; 0.005 µM in assay [4] (setting [5]); 0.071 µM in assay [4] (setting [6]).

Consider `C=CC(=O)N[C@H]1CCCC(n2c(NC(=O)c3cccc(C(F)(F)F)c3)nc3cccc(C)c32)C1` (mixture of isomers) [Example 6, trans-N-(1-(3-acrylamidocyclohexyl)-7-methyl-1H-benzo[d]imidazol-2-yl)-3-(trifluoromethyl)benzamide], for which the IC50 in assay [1] is 0.14 µM; in assay [2], 0.69 µM; in assay [3], over 10 µM; in assay [4] (setting [5]), 0.009 µM; in assay [4] (setting [6]), 0.18 µM.

Turning to `C=CC(=O)NCCCn1c(NC(=O)c2cccc(C(F)(F)F)c2)nc2cc(C)ccc21` [Example 8-4, N-{5-methyl-1-[3-(prop-2-enamido)propyl]-1H-1,3-benzodiazol-2-yl}-3-(trifluoromethyl)benzamide], the IC50 in assay [1] is 0.83 µM; in assay [2] it was over 10 µM; in assay [3] it was over 10 µM; in assay [4] (setting [5]), 0.046 µM; in assay [4] (setting [6]) it was 0.62 µM.

Take `C=CC(=O)Nc1cccc(-n2c(NC(=O)c3cccc(C(F)(F)F)c3)nc3cccc(C)c32)c1` [Example 2-13, N-{7-methyl-1-[3-(prop-2-enamido)phenyl]-1H-1,3-benzodiazol-2-yl}-3-(trifluoromethyl)benzamide]: the IC50 in assay [1] was 0.079 µM; in assay [2], 0.31 µM; in assay [3] it was over 10 µM; in assay [4] (setting [5]), 0.004 µM; in assay [4] (setting [6]), 0.057 µM.
